Patent US10723706B2, “Perk inhibitors and uses thereof in treating diseases associated with aggregation-prone proteins” (Ramot at Tel-Aviv University Ltd., priority 2016, dated 2020)

Key:
[1] = test system: cells; test: Intrinsic cytotoxicity on cells; type: cell-based
[2] = test system: STHdhQ111/111 cells; test: Rescue from UPR-induced cell death (tunicamycin), PI cell cycle FACS, sub-G0/G1 fraction; type: cell-based; conditions: Tun for 48 hours
Method: (§1) STHdhQ7/7 and STHdhQ111/111 cells were grown as described in Leitman et al. [PLoS One 2014, 9(3):e90803].
After the indicated treatment times in full medium or in DMEM without serum, cells were incubated with propidium iodide (PI) solution ([…]) and read by flow cytometry as described in Leitman et al. [PLoS One 2014, 9(3):e90803]. Cells in sub-G0/G1 were counted as apoptotic/dead cells.
The activity of the novel inhibitors, compared to A4, in preventing cytotoxicity induced by pathogenic Htt, was then tested. A stable murine striatal cell line expressing full-length polyQ-expanded Htt, STHdhQ^111/111, was used.

[3] = biological target: T1, RIPK1 (Homo sapiens, UniProt Q13546); conditions: Rojas-Rivera et al. 2017; cited from earlier work
T1 sequence (Q13546 1-671): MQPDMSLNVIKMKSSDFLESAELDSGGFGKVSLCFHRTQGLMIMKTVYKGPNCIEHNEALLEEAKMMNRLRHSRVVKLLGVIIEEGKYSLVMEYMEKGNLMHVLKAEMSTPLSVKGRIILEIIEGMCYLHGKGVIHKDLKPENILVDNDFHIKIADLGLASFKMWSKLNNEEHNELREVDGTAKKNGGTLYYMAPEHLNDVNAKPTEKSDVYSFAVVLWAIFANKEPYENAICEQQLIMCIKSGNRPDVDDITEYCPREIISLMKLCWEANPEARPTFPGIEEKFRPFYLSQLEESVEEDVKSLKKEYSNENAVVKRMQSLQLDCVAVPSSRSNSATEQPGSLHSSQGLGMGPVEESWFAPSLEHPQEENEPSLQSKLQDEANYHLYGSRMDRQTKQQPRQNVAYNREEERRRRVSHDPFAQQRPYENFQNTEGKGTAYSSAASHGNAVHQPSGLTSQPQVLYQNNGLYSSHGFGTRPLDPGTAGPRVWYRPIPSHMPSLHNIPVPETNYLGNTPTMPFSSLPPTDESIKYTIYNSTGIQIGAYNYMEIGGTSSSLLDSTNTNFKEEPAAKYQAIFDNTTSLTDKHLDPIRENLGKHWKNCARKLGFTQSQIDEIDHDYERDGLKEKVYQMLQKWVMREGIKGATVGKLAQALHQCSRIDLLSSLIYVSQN

[4] = test system: betaTC-tet pancreatic islet beta-cell line; test: Toxicity in pancreatic beta cells; type: cell-based, mouse; conditions: betaTC-tet cells, tested concentration range up to 500 nm
Method: MK-28 toxicity was tested in pancreatic beta cells, the type of cell that is most sensitive when ER stress response pathways are affected. A conditionally transformed mouse pancreatic islet beta-cell line (betaTC-tet), such as described by Efrat [Ann NY Acad Sci 1999, 875:286-293], was used. These cells produce high amounts of insulin, resulting in a high protein load in the ER, making them very sensitive to ER stress and other stimuli, such as cytokine effects. Compromising any of the UPR branches leads to cytotoxicity in these cells. MK-28 was compared to the ER stressor tunicamycin (Tun).

[5] = biological target: T2, PERK (eIF2αK3) (Mus musculus, UniProt Q9Z2B5); test: ER stress-mediated eIF2α phosphorylation in tunicamycin-treated striatal cells (immunoblotting); type: cell-based, murine; conditions: STHdhQ7/7 cells, Tun 5 μg/ml for 48 hours; A4 50 μM, PKRi 1 μM
T2 construct: endogenous in cells; host or cells: STHdhQ7/7 murine striatal cells
T2 sequence (Q9Z2B5 29-1114): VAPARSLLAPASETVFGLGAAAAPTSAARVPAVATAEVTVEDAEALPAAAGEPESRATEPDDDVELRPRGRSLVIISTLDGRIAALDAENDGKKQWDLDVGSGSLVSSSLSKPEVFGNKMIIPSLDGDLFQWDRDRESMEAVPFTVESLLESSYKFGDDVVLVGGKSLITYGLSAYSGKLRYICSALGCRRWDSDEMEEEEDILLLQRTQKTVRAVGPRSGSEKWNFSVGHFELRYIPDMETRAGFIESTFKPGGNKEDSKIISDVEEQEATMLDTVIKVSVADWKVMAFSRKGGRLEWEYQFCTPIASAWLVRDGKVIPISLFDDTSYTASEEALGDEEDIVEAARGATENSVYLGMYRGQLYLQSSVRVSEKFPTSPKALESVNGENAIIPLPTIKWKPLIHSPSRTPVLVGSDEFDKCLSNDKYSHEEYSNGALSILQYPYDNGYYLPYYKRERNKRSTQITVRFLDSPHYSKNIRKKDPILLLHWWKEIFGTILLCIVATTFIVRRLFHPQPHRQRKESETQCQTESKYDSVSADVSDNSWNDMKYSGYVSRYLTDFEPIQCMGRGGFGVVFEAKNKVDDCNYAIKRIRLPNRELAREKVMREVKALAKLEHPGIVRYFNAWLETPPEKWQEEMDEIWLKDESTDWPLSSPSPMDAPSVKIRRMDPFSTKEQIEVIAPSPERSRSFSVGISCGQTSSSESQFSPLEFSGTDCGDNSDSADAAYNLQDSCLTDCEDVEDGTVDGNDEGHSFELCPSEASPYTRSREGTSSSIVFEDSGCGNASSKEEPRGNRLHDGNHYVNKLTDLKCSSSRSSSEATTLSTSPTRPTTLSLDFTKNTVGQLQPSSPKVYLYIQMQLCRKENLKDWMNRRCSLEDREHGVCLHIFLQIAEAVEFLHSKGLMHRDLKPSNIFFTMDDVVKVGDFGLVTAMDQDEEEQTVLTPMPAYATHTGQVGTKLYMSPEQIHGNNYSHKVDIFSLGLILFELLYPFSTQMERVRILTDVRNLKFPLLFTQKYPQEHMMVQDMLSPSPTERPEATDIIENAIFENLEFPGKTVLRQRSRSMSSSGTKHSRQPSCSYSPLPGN
Method: as §1
(§2) Cells were treated with Tun ([…]) or with A4, PKRi, poly-I:C or exemplary PERK inhibitors of the present embodiments, by adding the tested compound to the cell medium at the indicated concentrations and times. Cell lysis and immunoblotting was performed as described in Leitman et al. [PLoS One 2014, 9(3):e90803].
As the activity of PERK was particularly affected in the Huntington's disease (HD) models [Leitman et al., PLoS One 2014, 9(3):e90803], the therapeutic capacity of a PERK inhibitor named A4 [Wang et al., Chem Biol Drug Des 2010, 76:480-495] was tested in cells expressing polyQ-expanded Htt, as depicted in Background art FIG. 1.

[6] = biological target: T3, PKR (eIF2αK2) (Mus musculus, UniProt Q03963); test: PKR activity induced with poly-I:C in cells; type: cell-based
T3 construct: endogenous in cells
T3 sequence (Q03963 1-515): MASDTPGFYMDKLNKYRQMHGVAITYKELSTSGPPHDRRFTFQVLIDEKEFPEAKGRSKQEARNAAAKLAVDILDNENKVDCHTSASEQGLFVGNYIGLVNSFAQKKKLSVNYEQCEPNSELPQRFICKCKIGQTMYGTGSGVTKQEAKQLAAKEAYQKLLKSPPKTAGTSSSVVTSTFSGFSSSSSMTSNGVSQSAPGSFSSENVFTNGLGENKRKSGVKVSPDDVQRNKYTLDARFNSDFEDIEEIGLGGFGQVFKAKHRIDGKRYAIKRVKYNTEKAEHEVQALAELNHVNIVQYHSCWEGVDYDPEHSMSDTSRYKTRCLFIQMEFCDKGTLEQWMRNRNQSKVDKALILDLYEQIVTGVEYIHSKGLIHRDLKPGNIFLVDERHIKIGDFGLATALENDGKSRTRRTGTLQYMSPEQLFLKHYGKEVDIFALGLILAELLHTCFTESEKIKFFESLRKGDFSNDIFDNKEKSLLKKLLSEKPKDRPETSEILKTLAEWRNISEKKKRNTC
Method: as §2

COc1cc(/C=N\N(C)c2nc(-c3ccccc3)cc(-c3ccccc3)n2)ccc1O [Compound 1, 2-{N-methyl-N′-(3-methoxy-4-hydroxybenzylidene)hydrazinyl}-4,6-diphenylpyrimidine]
intrinsic cytotoxicity on cells [1]: neither MPGL1 nor MK-28 exhibited intrinsic cytotoxicity | rescue from UPR-induced cell death (cytotoxicity) [2]: more potent than A4

Cn1cc(-c2ccc3c(c2)CCN3C(=O)Cc2cccc(C(F)(F)F)c2)c2c(N)ncnc21 [GSK2606414]
inhibition of RIPK1 [3]: potent inhibitors of RIPK1

Tunicamycin [reference compound]
toxicity in pancreatic beta cells [4]: toxic

Cc1cccc(CC(=O)N2CCc3c2ccc(-c2cn(C)c4ncnc(N)c24)c3F)n1 [GSK2656157]
inhibition of RIPK1 [3]: potent inhibitors of RIPK1

O=C1Nc2ccc3ncsc3c2/C1=C/c1cnc[nH]1 [PKRi, reference compound]
rescue from UPR-induced cell death (cytotoxicity) [2]: had no effect | rescue from UPR-induced cell death (cytotoxicity) ([2]; listed as PKR inhibitor): no effect | inhibition of ER stress-mediated eIF2α phosphorylation [5]: not by PKRi | inhibition of PKR activity [6]: inhibited
